Tests used:
[1] = biological target: T1, TGF-β mediated by TSP-1 (purified human platelet TSP-1 + recombinant latent TGF-β1) (Homo sapiens, UniProt P07996); experiment: In vitro ELISA assay: TSP-1 incubated with compound, then with recombinant latent TGF-β1; active TGF-β detected; assay type: biochemical; details: read-out: Inhibition of TGF-β mediated by TSP-1 in vitro Elisa assay at [Inhibitor]; for inhibition at 0.0001 µM: At 100 pM
T1 construct: purified human platelet TSP-1 was incubated with compounds; tissue R&D Systems (latent TGF-β1 only); host or cells: human platelets (TSP-1)
T1 sequence (P07996 19-1170): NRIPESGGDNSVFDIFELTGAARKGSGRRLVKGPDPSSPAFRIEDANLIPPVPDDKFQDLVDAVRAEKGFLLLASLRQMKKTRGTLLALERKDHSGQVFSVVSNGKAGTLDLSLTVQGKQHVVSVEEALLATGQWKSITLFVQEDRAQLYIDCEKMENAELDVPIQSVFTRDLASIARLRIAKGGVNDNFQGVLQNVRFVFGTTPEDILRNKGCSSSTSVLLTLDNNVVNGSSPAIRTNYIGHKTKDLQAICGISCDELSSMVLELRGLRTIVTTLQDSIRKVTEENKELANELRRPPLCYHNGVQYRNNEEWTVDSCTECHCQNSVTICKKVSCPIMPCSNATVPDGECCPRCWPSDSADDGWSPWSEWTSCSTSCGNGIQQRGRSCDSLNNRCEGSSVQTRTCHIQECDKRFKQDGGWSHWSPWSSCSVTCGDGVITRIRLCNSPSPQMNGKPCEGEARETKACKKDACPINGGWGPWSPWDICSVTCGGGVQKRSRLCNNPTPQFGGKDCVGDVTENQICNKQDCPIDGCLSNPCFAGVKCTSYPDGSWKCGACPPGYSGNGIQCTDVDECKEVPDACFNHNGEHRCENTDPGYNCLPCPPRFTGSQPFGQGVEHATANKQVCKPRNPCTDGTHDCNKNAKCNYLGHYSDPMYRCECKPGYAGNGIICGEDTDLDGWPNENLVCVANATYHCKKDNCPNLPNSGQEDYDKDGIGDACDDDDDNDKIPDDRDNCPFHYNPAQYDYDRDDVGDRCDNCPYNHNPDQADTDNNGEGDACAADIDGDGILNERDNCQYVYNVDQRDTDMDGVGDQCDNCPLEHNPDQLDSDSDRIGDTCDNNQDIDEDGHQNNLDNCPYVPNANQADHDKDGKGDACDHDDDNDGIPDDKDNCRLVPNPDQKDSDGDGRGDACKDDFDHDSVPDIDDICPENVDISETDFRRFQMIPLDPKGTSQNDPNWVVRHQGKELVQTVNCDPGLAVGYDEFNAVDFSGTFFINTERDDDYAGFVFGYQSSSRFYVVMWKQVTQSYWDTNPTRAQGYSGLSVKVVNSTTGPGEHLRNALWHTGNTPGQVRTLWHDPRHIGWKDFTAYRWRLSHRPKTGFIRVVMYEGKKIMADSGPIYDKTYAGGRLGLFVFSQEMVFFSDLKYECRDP
Procedure: For initial screening, an ELISA-based screening assay was used in which purified human platelet TSP-1 was incubated with compounds and then incubated with recombinant latent TGF-β1 (purchased from R&D Systems). Activity is measured in a commercially available ELISA which detects only active TGF-β (R &D Systems). Activity in the presence of compounds is compared to activity in TSP-1+latent TGF-β samples without inhibitory compounds (Lu et al. (2016) Am J Pathol 186:678-690).

[2] = tested on: TGF-β mediated by TSP-1; experiment: Cell-based assay of inhibition of TGF-β mediated by TSP-1; design: species or system human; details: for inhibition at 0.01 µM / inhibition at 0.1 µM / inhibition at 1 µM / IC50: Homo sapiens; for inhibition at 0.01 µM: At 10 nM; for inhibition at 0.01 µM / inhibition at 0.1 µM / inhibition at 1 µM: read-out: Inhibition of TGF-β mediated by TSP-1 cell-based assay at [Inhibitor]; for inhibition at 0.1 µM: At 100 nM; for IC50: assay not stated, given only for compounds tested in the cell-based assay
Procedure: To specifically assess activity of compounds in liver cell specific assays, two different assays were used. In the first, human hepatic stellate cells were incubated overnight in low serum media to condition the media with secreted latent […]. Purified TSP1 either preincubated with compounds or not will be added to cultures and then conditioned media harvested to assess TGF-β biological activity using the R&D Systems ELISA as above. Hepatic stellate cells will be purchased from commercial sources. Although hepatic stellate cells are the primary drivers of liver fibrosis, conditions which drive liver fibrosis can induce hepatocyte TSP-1 expression which can then have paracrine effects on controlling TGF-β activation in hepatic stellate cells. Furthermore, TGF-β can negatively impact hepatocyte regeneration following injury. Therefore, the ability of compounds to block TSP-1 activation of latent TGF-β will also be assessed in cultured primary human hepatocytes following the protocol described for the hepatic stellate cells. Similar approaches have successfully been used to screen compounds which inhibit human myeloma cell derived latent TGF-β activation by TSP-1 (Lu et al. (2016) Am J Pathol 186:678-690).

[3] = tested on: CAG-heparanase MM cells; experiment: PAI-1 promoter luciferase reporter assay of conditioned media of TSP1-treated CAG-heparanase MM cells; assay type: cell-based, human; details: cells treated with 67 nM TSP1
Procedure: Referring to FIG. 4B, CAG-heparanase MM cells were treated with 67 nM TSP1 and conditioned media were assessed for TGF-β activity using PAI-1 promoter luciferase reporter assay. There is ˜[…] TGF-β in the added TSP1 and LSKL blocks 80% of the CAG-heparanase MM cell generated TGF-β activity.

[4] = tested on: CAG human myeloma cells; experiment: SCID-tibia MM model, tumor burden (bioluminescence, serum Ig kappa); assay type: in vivo, SCID mice; details: LSKL 30 mg/kg/day by subcutaneous osmotic pump, 2 and 4 weeks
Procedure: Referring to FIG. 2A and FIG. 2B, CAG human myeloma cells were injected into the intratibial marrow space of SCID mice. After 2 weeks, tumors were imaged by bioluminescence and serum 1 g kappa levels measured. Mice were randomized to equalize 1 g kappa levels. Osmotic pumps were implanted subcutaneously to deliver saline or LSKL peptide (30 mg/kg/day) (n=10/group). Tumors were imaged and serum 1 g kappa levels measured at 2 and 4 weeks of treatment. Data are means±SEM. Bioluminescence; *p=0.019 ANOVA, serum kappa; p=0.037, t-test.

[5] = tested on: phospho-Smad 2; experiment: Phospho-Smad 2 staining of tibiae from mice injected with CAG MM cells; assay type: in vivo; details: 4 weeks of treatment
Procedure: Referring to FIG. 3A-C, at 4 weeks of treatment, tibiae from mice injected with CAG MM cells were fixed and stained with antibody to phosphor-Smad 2. Left panels are from 2 different saline treated mice and the right panels are from LSKL-treated mice. Pixels of brown staining were quantified in 4 fields per animal. 5-6 animals per group were analyzed. Data are the percent area exceeding the threshold for positive staining (FIG. 3A). […] P=0.004.

[6] = tested on: MSCs; experiment: Osteoblast differentiation by MSCs under osteogenic conditions (alkaline phosphatase staining, Runx2 RT-PCR); assay type: cell-based; details: osteogenic media, TSP1 10 nM + LSKL 25 μM, 20 days
Procedure: Referring to FIG. 1A, MSCs were grown to confluence in basal (control) media. Cells were treated with control growth media, osteogenic media, or osteogenic media with TGF-β (5 ng/mL) or stripped TSP1 (10 nM), TSP1+LSKL (25 μM), TSP1+SLLK (25 μM control peptide), or TSP1+anti-TGF-β (5 μg/mL). Cultures were fed daily for 20 days. Alkaline phosphatase staining is representative of triplicate wells.
Referring to FIG. 1B, cells were treated every 2 days for 20 days with MSC growth media (control) or osteogenic media with TGF-β (5 ng/mL) or TSP1 (10 nM)±daily treatment with 25 μM LSKL or SLLK peptides. RNA isolated from cells was used for RT-PCR analysis of Runx2 expression. Samples were run in duplicate and each experimental treatment in triplicate.

[7] = tested on: CAG MM cells; experiment: Phospho-Smad 2 immunoblot in TSP1-treated CAG MM cells; assay type: cell-based, human; details: 30 nM TSP1 for 6 hrs ± LSKL
Procedure: Referring to FIG. 4A, CAG MM cells were incubated with 30 nM TSP1 for 6 hrs±LSKL or SLLK. Cell lysates were immunoblotted for phosphor-Smad 2. Blots were stripped and reprobed for total Smad 2/3 and GAPDH. Results are normalized to GAPDH (untreated controls=1). LSKL reduces TSP1 induced treatment or luciferase activity in cells treated with active TGF-β (not shown).

[8] = cited from earlier work
[9] = 30 mg/kg i.p., 3 times weekly, 15 weeks; cited from earlier work

Compound | inhibition at 0.01 µM [2] [%] | inhibition at 0.1 µM [2] [%] | inhibition at 1 µM [2] [%] | IC50 [2] [nM] | other results
NCCCC[C@@H]1NC(=O)CNC1=O [Compound 1, (S)-3-(4-aminobutyl)piperazine-2,5-dione] | 38 | 59 | 74.5 |  | inhibition at 10 pM [1]: -67%; inhibition at 50 pM [1]: -4%; inhibition at 0.0001 µM [1]: 37%
CC1(C)NC(=O)[C@H](CCCCN)NC1=O [Compound 2, (S)-6-(4-aminobutyl)-3,3-dimethylpiperazine-2,5-dione] | 38 | 71 | 76 |  | inhibition at 10 pM [1]: 73%; inhibition at 50 pM [1]: 91%; inhibition at 0.0001 µM [1]: 89%
Nc1ccc(C[C@@H]2NC(=O)CNC2=O)cc1 [Compound 3, (S)-3-(4-aminobenzyl)piperazine-2,5-dione] | 13 | 32 | 75 |  | inhibition at 10 pM [1]: 66%; inhibition at 50 pM [1]: 68%; inhibition at 0.0001 µM [1]: 90%
CC1(C)NC(=O)[C@H](Cc2ccc(N)cc2)NC1=O [Compound 4, (S)-6-(4-aminobenzyl)-3,3-dimethylpiperazine-2,5-dione] | 80 | 78 | 83 | 1 | 
CC1(C)NC(=O)[C@H](Cc2cccc(CN)c2)NC1=O [Compound 6] | 75 | 96 | 97 | 1 | 
NCCCC[C@@H]1NC(=O)C2(CCCC2)NC1=O [Compound 7] | 72 | 89 | 92 | 0.85 | 
Nc1ccc(C[C@@H]2NC(=O)C3(CCC3)NC2=O)cc1 [Compound 8, (S)-7-(4-aminobenzyl)-5,8-diazaspiro[3.5]nonane-6,9-dione] | 62 | 89 | 92 | 4 | 
Nc1ccc(C[C@@H]2NC(=O)C3(CCCC3)NC2=O)cc1 [Compound 9, (S)-8-(4-aminobenzyl)-6,9-diazaspiro[4.5]decane-7,10-dione] | 40 | 92 | > 100 | 11 | 
CC1(C)NC(=O)[C@@H](CCCCN)NC1=O [Compound 10, (R)-6-(4-aminobutyl)-3,3-dimethylpiperazine-2,5-dione] |  |  |  |  | Inhibition of TGF-β mediated by TSP-1 cell-based assay (result in words) [2]: Inactive
CC1(C)NC(=O)[C@H](Cc2ccc(C(N)=O)cc2)NC1=O [Compound 11, (S)-4-((5,5-dimethyl-3,6-dioxopiperazin-2-yl)methyl)benzamide] | 25 | 39 | 40 |  | 
NC(=O)c1ccc(C[C@@H]2NC(=O)CNC2=O)cc1 [Compound 12, (S)-4-((3,6-dioxopiperazin-2-yl)methyl)benzamide] | 40 | 65.6 | 68 |  | 
NC(=O)c1ccc(C[C@@H]2NC(=O)C3(CCCC3)NC2=O)cc1 [Compound 13, (S)-4-((7,10-dioxo-6,9-diazaspiro[4.5]decan-8-yl)methyl)benzamide] | 8 | 24.6 | 19.6 |  | 
NCCC[C@@H]1NC(=O)C2(CCCC2)NC1=O [Compound 14, (S)-8-(3-aminopropyl)-6,9-diazaspiro[4.5]decane-7,10-dione] | 54 | 85 | 90 |  | 
Nc1ccc(C[C@@H]2NC(=O)C3(CCCCC3)NC2=O)cc1 [Compound 15, (S)-3-(4-aminobenzyl)-1,4-diazaspiro[5.5]undecane-2,5-dione] | 49 | 85 | 94 |  | 
LSKL |  |  |  |  | block of CAG-heparanase MM cell generated TGF-β activity [3]: 80%; MM tumor burden [4]: Reduces MM Tumor Burden; phospho-Smad 2 in the bone marrow [5]: Reduces Phospho-Smad 2; osteoblast differentiation by MSCs [6]: Increases Osteoblast Differentiation; TGF-β activity (phospho-Smad 2) in CAG MM cells [7]: Reduces TGF-B Activity; plasma stability half-life [8]: 2.1 min; necropsy findings after chronic treatment [9]: no inflammation, no tumors in all major organs, and no impairment of wound healing

— US11505531B2 (SOUTHERN RESEARCH INSTITUTE, priority 2018, dated 2022)
